The results in this text go back to the METLIN SMRT retention time set (Domingo-Almenara et al. 2019).

SMILES strings stand for the structures.

The data set can be described thus: gradient 5% acetonitrile 3 min, to 50% in 2 min, to 85% in 15 min, held 3 min, 100 µL/min. To be noted: column: Zorbax Extend-C18 2.1 x 50 mm; eluents: water / acetonitrile, 0.1% formic acid. An outline of the steps: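 Retention times of pure standards were taken from adduct peaks that were selected by computer and manually inspected. Over 3 months, mixtures of ~100 molecules were run by HPLC–quadrupole time-of-flight mass spectrometry in positive and negative ionization mode. The Zorbax Extend-C18 column (2.1 × 50 mm, 1.8 μm) ran at 100 μL/min in water and acetonitrile, each containing 0.1% formic acid, with 40 μL dead volume and 900 μL dwell volume.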
Regarding `O=C(C1CCN(c2cnc3nccnc3c2)CC1)N1CCC(Cc2ccccc2)CC1`, the RP-LC retention time was found to be 889 s.

Take `Cc1cc(C(=O)Nc2nnc(-c3csc(C)n3)o2)c(C)o1`: the RP-LC retention time was 599 s.

As to `CC(C)NC(=O)c1ccc(OCC2CCN(C(=O)Cc3ccccc3F)CC2)cc1`, the RP-LC retention time was 870 s.

The compound `O=C(NC1CCCCC1)C1CCCN(S(=O)(=O)c2cc(-c3noc(C4CCCC4)n3)cs2)C1` (stereo not drawn) came in with an RP-LC retention time of 1220 s.

Regarding `COc1ccc(NC(=O)NC(C(=O)N2CCc3ccccc32)C(C)C)cc1OC` (stereo not drawn), the RP-LC retention time came out at 830 s.

`CSc1nnc(-c2nn(C)c3c2CN(C(=O)Cc2ccc(C)cc2)CC3)n1C`: the RP-LC retention time amounted to 736 s.

Consider `CCc1ccccc1NC(=O)C1CCN(S(=O)(=O)c2c(C)nn(-c3ccccc3)c2C)CC1`, for which the RP-LC retention time is 985 s.

In turn, `COc1ccc(-c2noc(C3CCCN3C(=O)C3CCCC3)n2)cc1` (stereo not drawn) had an RP-LC retention time of 978 s.

In turn, `CCc1nc(-c2cc(S(=O)(=O)N3CCC(C(=O)NCc4cccs4)CC3)c(C)s2)no1` gave an RP-LC retention time of 967 s.

Take `O=C(c1csc(Nc2ccccc2)n1)N1CCN(c2ccccc2F)CC1`: the RP-LC retention time came out at 911 s.

`O=C(c1cc(-c2ccccn2)n[nH]1)N1CCCC(C(=O)N2CCc3ccccc3C2)C1` (stereo not drawn): the RP-LC retention time stood at 688 s.

In turn, `Cn1c(=O)n(Cc2cccc(Cl)c2)c(=O)c2cnc(-c3ccncc3)nc21` gave an RP-LC retention time of 922 s.

Consider `COc1ccc(OC)c(NC(=O)NC(C)C(=O)N2CCc3ccccc32)c1` (stereo not drawn), for which the RP-LC retention time was determined as 859 s.

As to `Cc1ccc(-c2nnc(N3CCC(C(=O)NCc4ccc5c(c4)OCO5)CC3)o2)cc1`, the RP-LC retention time is 838 s.

`CC(=O)c1ccc(S(=O)(=O)N2CCCC(C)(C(=O)NCc3ccccc3C)C2)cc1` (stereo not drawn) gave an RP-LC retention time of 588 s.

Consider `CCC1CN(C(=O)N2CCC(C(=O)NCCCN3CCN(C)CC3)CC2)c2ccccc2O1` (stereo not drawn), for which the RP-LC retention time came to 592 s.

As to `COc1cccc(Cc2nc(-c3cn(-c4cccc(F)c4)nn3)no2)c1`, the RP-LC retention time is 993 s.

Consider `Cc1cccc(Cn2nc(-c3nc(C)no3)ccc2=O)c1`, for which the RP-LC retention time worked out at 789 s.

Compound `Cc1cccc2c(C(=O)NC3CC3)c3c(nc12)CCC3` had an RP-LC retention time of 606 s.

The compound `O=C(NCC1CC1)c1cn(-c2ccc(NC(=O)C3CC3)cn2)cn1` returned an RP-LC retention time of 651 s.

Regarding `CCc1nc2cc(N3CCC(C(=O)NCc4cccc(F)c4)CC3)cnc2nc1CC`, the RP-LC retention time came out at 840 s.

For `CN(C)c1cccc(C(=O)NC2CCN(c3cc(-c4cccs4)[nH]n3)C2)c1` (stereo not drawn), the RP-LC retention time came out at 668 s.

The compound `O=S(=O)(c1cccc(-c2nnc(-c3ccc(F)cc3)o2)c1)N1CCCCCC1` came in with an RP-LC retention time of 1110 s.

For `O=C(CSc1ncc(CO)n1Cc1ccc(F)cc1)N1CCCc2ccccc21`, the RP-LC retention time was determined as 702 s.

As for `CCn1cnc(S(=O)(=O)N2CCC(C(=O)NCc3ccccc3OC)CC2)c1`, the RP-LC retention time was 902 s.

For `COc1ccc(Nc2c(-c3nc(C)no3)cnc3nc(C)ccc23)cc1Cl`, the RP-LC retention time is 736 s.

`O=C(O)CCCCC(CCSCc1ccccc1)SCc1ccccc1` (stereo not drawn) showed an RP-LC retention time of 670 s.

In turn, `Cc1ccc(-c2nccn3cc(C(=O)NC(C)C)nc23)cc1` showed an RP-LC retention time of 883 s.

`Cc1n[nH]c(C)c1S(=O)(=O)Nc1ccc(CC(=O)NCc2cccs2)cc1` returned an RP-LC retention time of 640 s.

On to `Cc1ccnc(Nc2nc(-c3ccccc3)cs2)c1`, for which the RP-LC retention time came to 790 s.

`Cc1ccc(-n2nc3c(=O)n(CCCC(=O)NCC4CCCO4)nc(C)c3c2C)cc1` (stereo not drawn) came in with an RP-LC retention time of 731 s.

As to `O=C(C1CCCN(c2cnc3nccnc3c2)C1)N1CCN(c2ccc(F)cc2)CC1` (stereo not drawn), the RP-LC retention time was found to be 746 s.

In the case of `CC(=O)NS(=O)(=O)c1ccc(NC(=O)NC2CC(=O)N(c3ccc(C)cc3)C2)cc1` (stereo not drawn), the RP-LC retention time is 651 s.

`Cc1ccccc1CNC(=O)C1(C)CCCN(C(=O)NCC(C)C)C1` (stereo not drawn) displayed an RP-LC retention time of 820 s.

On to `CCn1ccc(C(=O)Nc2ccc(OCc3nnc(-c4ccc(Cl)cc4)o3)cc2)n1`, for which the RP-LC retention time is 1010 s.

`CCC(C)C(NC(=O)c1cc(F)cc(F)c1)C(=O)Nc1nc2ccccc2[nH]1` (stereo not drawn) came in with an RP-LC retention time of 787 s.

In turn, `O=C(c1nnc(-c2ccc(S(=O)(=O)N3CCCCC3)cc2)o1)N1CCC(N2CCCCC2)CC1` yielded an RP-LC retention time of 654 s.

As to `Cc1cc(-c2ccc(S(=O)(=O)N3CCC(C(=O)N4CCCC4)CC3)o2)n[nH]1`, the RP-LC retention time was determined as 679 s.

Consider `CN1C(=O)c2cc(C(=O)NCCc3ccccc3Cl)nn2CC1(C)C(=O)NCc1ccccc1` (stereo not drawn), for which the RP-LC retention time was 816 s.

Consider `O=C(c1ccco1)N1CCC(n2cnnc2-c2ccccc2)CC1`, for which the RP-LC retention time is 639 s.

`COc1ccccc1NC(=O)c1sc(-c2cn(C)c3ncccc23)nc1C` had an RP-LC retention time of 1060 s.

On to `COc1cc(OC)cc(N2C(=O)C3N=NN(Cc4nc(-c5cccc(Cl)c5)no4)C3C2=O)c1` (stereo not drawn), for which the RP-LC retention time was 1020 s.

Regarding `COc1cccc(NC(=O)Cn2c(C)nc3c(sc4nc(-c5ccccc5)ccc43)c2=O)c1`, the RP-LC retention time came to 1090 s.

Compound `CC1CCCN(c2ccn3c(=O)n(CC(=O)NCc4ccc(F)cc4)nc3n2)C1` (stereo not drawn) displayed an RP-LC retention time of 804 s.

For `CC1CCc2nc3ncn(CC(=O)NCCC4=CCCCC4)c(=O)c3cc2C1` (stereo not drawn), the RP-LC retention time came out at 847 s.

`CCCN1C(=O)C(CC(=O)NCC(C)C)Sc2ncccc21` (stereo not drawn) returned an RP-LC retention time of 741 s.

In turn, `O=C(NCCCn1ccnc1)C(=O)Nc1c2c(nn1-c1cccc(Cl)c1)CSC2` came in with an RP-LC retention time of 568 s.

`COc1cccc(NC(=O)N2CCN(c3nc4ccccc4n3Cc3ccccc3)CC2)c1` registered an RP-LC retention time of 614 s.

Consider `COc1ccc(-n2c(=O)c(C(=O)Nc3ccc4c(c3)OCO4)c(O)c3cccnc32)cc1`, for which the RP-LC retention time came out at 1200 s.

As for `CCCN1C(=O)COc2ccc(-c3noc(-c4ccc(F)c(F)c4)n3)cc21`, the RP-LC retention time was found to be 1270 s.

Consider `Clc1ccc(CSc2nnc(-c3ccc(Br)cc3)o2)cc1`, for which the RP-LC retention time was 1270 s.

For the compound `Cc1cc(-c2ccc(S(=O)(=O)N3CCN(c4ccccn4)CC3)c(C)c2)on1`, the RP-LC retention time was 697 s.

In turn, `CSc1ccc(CNC(=O)C2CCN(c3cc(=O)n(C)c(=O)n3C)CC2)cc1` came in with an RP-LC retention time of 694 s.

For the compound `O=C(CN1C(=O)COc2ccc(C(=O)N3CCCC3)cc21)NCCN1CCCCCC1`, the RP-LC retention time is 589 s.

On to `CN1CCN(c2ccc(-c3cccc(NC(=O)c4ccccc4F)c3)nn2)CC1`, for which the RP-LC retention time was 693 s.

In turn, `O=C(Nc1ccc(N2CCOCC2)cc1)C1CCCN(c2ccnc(-c3cccc(F)c3)n2)C1` (stereo not drawn) yielded an RP-LC retention time of 649 s.

With `O=C(Nc1cccc2c1N(C(=O)c1ccco1)CCC2)c1ccco1`, the RP-LC retention time was determined as 784 s.

Compound `Cc1cccc(C)c1OCC(=O)c1ccc2c(c1)N(CCCC(=O)NCC1CCCO1)C(=O)CO2` (stereo not drawn) returned an RP-LC retention time of 803 s.
